Source: patent publication US20060281687A1, “Cyclin groove inhibitors” (priority 2003, published 2006)
Non-standard residues stand in square brackets, D forms with d. Residues, ends and D or L forms follow the SMILES beside them. *: point of attachment. X14 = O=C(c1ccc(-n2cncn2)c([N+](=O)[O-])c1)*; X3 = Cc1nc(C(=O)*)nn1-c1ccc([N+](=O)[O-])cc1; X2 = CC(C)n1c(C(F)(F)F)nc2cc(C(=O)*)ccc21; X6 = O=C(COn1c(-c2ccccc2)nc2ccc(Cl)cc21)*; X10 = O=C(c1c(-c2ccccc2)nc2cccc(Cl)n12)*; X4 = Cc1nc(C(=O)*)nn1-c1cccc(C(F)(F)F)c1; X8 = COc1cc(-n2nc(C(=O)*)nc2C)c(Cl)cc1Cl; X11 = Cc1nc(C(=O)*)nn1-c1cc(Cl)cc(Cl)c1; Phe(4-F) = N[C@@H](Cc1ccc(F)cc1)C(=O)O; X13 = Cc1nc(C(=O)*)nn1-c1ccc(Cl)cc1Cl; X9 = O=C(COn1c(-c2ccccc2)nc2ccccc21)*; X5 = Cc1nc(C(=O)*)nn1-c1ccc(Cl)cc1; X7 = O=C(c1ccc2nc(-n3cccc3)sc2c1)*; X1 = Cc1nc(C(=O)*)nn1-c1ccc(F)cc1; X12 = O=C(c1ccc(N2CCNC2=S)cc1)*

How the values were obtained:
CDK2/cyclin A [1] = molecular target: T1, CDK2/cyclin A (Homo sapiens, UniProt P20248); assay: Competitive binding assay (fluorescence polarisation, fluorescein tracer peptide); settings: purified recombinant human CDK2/cyclin A; tracer fluorescein-Ahx-His-Ala-Lys-Arg-Arg-Leu-Ile-Phe-NH2; 1 h room temperature; read-out: Inhibitory activity IC50 ± SD, Competitive binding assay
Procedure: Competitive Binding Assay
This assay was performed using half-area black 96-well microtitre plates. To each well were added: 10 μL assay buffer (25 mM HEPES pH 7, 10 mM NaCl, 0.01% Nonidet P-40, 1 mM dithiothreitol), 10 μL test compound solution (in 10% aq DMSO), 10 μL CDK2/cyclin A (ca. 2 μg purified recombinant human kinase complex) in assay buffer, and 10 μL tracer peptide solution (150 nM fluorescein-Ahx-His-Ala-Lys-Arg-Arg-Leu-Ile-Phe-NH2; refer McInnes, C. et al., 2003, Curr. Med. Chem. Anti-Cancer Agents, 3, 57; Atkinson, G. E. et al., 2002, Bioorg. Med. Chem. Lett., 12, 2501) in assay buffer. After incubation with shaking for 1 h at room temperature, fluorescence polarisation at 485-520 nm was measured using a Tecan Ultra reader. Half-maximal inhibition (IC50) was calculated from dose—response curves.

CDK2/cyclin A [2] = molecular target: T1, CDK2/cyclin A; assay: Functional kinase assay (phosphorylation of GST-pRb(773-928)); assay type: biochemical; settings: recombinant human CDK2/cyclin A; GST-pRb(773-928) substrate; 100 μM ATP; 30 min at 30° C.; read-out: Inhibitory activity IC50 ± SD, Functional kinase assay
Procedure: CDK2/cyclin A kinase assays (phosphorylation of natural retinoblastoma protein (pRb)) were performed in 96-well plates using recombinant proteins. To each well were added: 10 μL assay buffer (50 mM HEPES pH 7.4, 20 mM β-glycerophosphate, 5 mM EGTA, 2 mM dithiothreitol, 1 mM NaVO3, and 20 mM MgCl2), 5 μL GST-pRb(773-928) substrate stock solution,10 μL test compound solution, 10 μL (2-5 μg protein) of purified recombinant human CDK2/cyclin A stock. The reaction was initiated by addition of 10 μL/well Mg/ATP mix (15 mM MgCl2, 100 μM ATP with 30-50 kBq per well of [γ-^32P]-ATP) and mixtures were incubated with shaking for 30 min at 30° C. Reactions were stopped on ice, followed by addition of 5 μL/well of glutathione-Sepharose 4B (Amersham Biosciences) and further incubation with shaking for 30 min at room temperature. The mixtures were then filtered on Whatman GF/C filterplates and washed 4 times with 0.2 mL/well of 50 mM HEPES containing 1 mM ATP. Plates were dried, sealed, and scintillant (Microscint 40) was added. Incorporated radioactivity was measured using a scintillation counter (TopCount, Packard Instruments, Pangbourne, Berks, UK). Half-maximal inhibition (IC50) was calculated from dose—response curves.

Structure (SMILES) | IC50 (CDK2/cyclin A [1]) | IC50 (CDK2/cyclin A [2])
CC(C)C[C@H](NC(=O)[C@H](CCCNC(=N)N)NC(=O)c1c(-c2ccccc2)nc2cccc(Cl)n12)C(=O)N[C@@H](CC(N)=O)C(=O)N[C@@H](Cc1ccc(F)cc1)C(N)=O [Compound 1] (X10-RLN[Phe(4-F)]-NH2) | 12 ± 2 µM | 53 ± 25 µM
COc1cc(-n2nc(C(=O)N[C@@H](CCCNC(=N)N)C(=O)N[C@@H](CC(C)C)C(=O)N[C@@H](CC(N)=O)C(=O)N[C@@H](Cc3ccc(F)cc3)C(N)=O)nc2C)c(Cl)cc1Cl [Compound 2] (X8-RLN[Phe(4-F)]-NH2) | 0.93 ± 0.05 µM | 11 ± 7 µM
Cc1nc(C(=O)N[C@@H](CCCNC(=N)N)C(=O)N[C@@H](CC(C)C)C(=O)N[C@@H](CC(N)=O)C(=O)N[C@@H](Cc2ccc(F)cc2)C(N)=O)nn1-c1ccc(Cl)cc1 [Compound 3] (X5-RLN[Phe(4-F)]-NH2) | 4.1 ± 1.3 µM | 4.3 ± 2.1 µM
Cc1nc(C(=O)N[C@@H](CCCNC(=N)N)C(=O)N[C@@H](CC(C)C)C(=O)N[C@@H](CC(N)=O)C(=O)N[C@@H](Cc2ccc(F)cc2)C(N)=O)nn1-c1ccc(Cl)cc1Cl [Compound 4] (X13-RLN[Phe(4-F)]-NH2) | 3.6 ± 0.6 µM | 6.4 ± 0.3 µM
CC(C)C[C@H](NC(=O)[C@H](CCCNC(=N)N)NC(=O)c1ccc(N2CCNC2=S)cc1)C(=O)N[C@@H](CC(N)=O)C(=O)N[C@@H](Cc1ccc(F)cc1)C(N)=O [Compound 5] (X12-RLN[Phe(4-F)]-NH2) | 5.8 ± 1.6 µM | 19 ± 3 µM
Cc1nc(C(=O)N[C@@H](CCCNC(=N)N)C(=O)N[C@@H](CC(C)C)C(=O)N[C@@H](CC(N)=O)C(=O)N[C@@H](Cc2ccc(F)cc2)C(N)=O)nn1-c1ccc(F)cc1 [Compound 6] (X1-RLN[Phe(4-F)]-NH2) | 6.1 ± 1.2 µM | 4.4 ± 0.8 µM
Cc1nc(C(=O)N[C@@H](CCCNC(=N)N)C(=O)N[C@@H](CC(C)C)C(=O)N[C@@H](CC(N)=O)C(=O)N[C@@H](Cc2ccc(F)cc2)C(N)=O)nn1-c1ccc([N+](=O)[O-])cc1 [Compound 7] (X3-RLN[Phe(4-F)]-NH2) | 6.4 ± 1.8 µM | 5.4 ± 0.9 µM
CC(C)C[C@H](NC(=O)[C@H](CCCNC(=N)N)NC(=O)c1ccc(-n2cncn2)c([N+](=O)[O-])c1)C(=O)N[C@@H](CC(N)=O)C(=O)N[C@@H](Cc1ccc(F)cc1)C(N)=O [Compound 8] (X14-RLN[Phe(4-F)]-NH2) | 28 ± 4 µM | 26 ± 5 µM
CC(C)C[C@H](NC(=O)[C@H](CCCNC(=N)N)NC(=O)COn1c(-c2ccccc2)nc2ccccc21)C(=O)N[C@@H](CC(N)=O)C(=O)N[C@@H](Cc1ccc(F)cc1)C(N)=O [Compound 9] (X9-RLN[Phe(4-F)]-NH2) | 15 ± 2 µM | 37 ± 6 µM
Cc1nc(C(=O)N[C@@H](CCCNC(=N)N)C(=O)N[C@@H](CC(C)C)C(=O)N[C@@H](CC(N)=O)C(=O)N[C@@H](Cc2ccc(F)cc2)C(N)=O)nn1-c1cc(Cl)cc(Cl)c1 [Compound 10] (X11-RLN[Phe(4-F)]-NH2) | 2.1 ± 0.2 µM | 3.7 ± 0.2 µM
CC(C)C[C@H](NC(=O)[C@H](CCCNC(=N)N)NC(=O)COn1c(-c2ccccc2)nc2ccc(Cl)cc21)C(=O)N[C@@H](CC(N)=O)C(=O)N[C@@H](Cc1ccc(F)cc1)C(N)=O [Compound 11] (X6-RLN[Phe(4-F)]-NH2) | 12 ± 2 µM | 30 ± 16 µM
CC(C)C[C@H](NC(=O)[C@H](CCCNC(=N)N)NC(=O)c1ccc2nc(-n3cccc3)sc2c1)C(=O)N[C@@H](CC(N)=O)C(=O)N[C@@H](Cc1ccc(F)cc1)C(N)=O [Compound 12] (X7-RLN[Phe(4-F)]-NH2) | 4.8 ± 0.4 µM | 15.3 ± 3.1 µM
CC(C)C[C@H](NC(=O)[C@H](CCCNC(=N)N)NC(=O)c1ccc2c(c1)nc(C(F)(F)F)n2C(C)C)C(=O)N[C@@H](CC(N)=O)C(=O)N[C@@H](Cc1ccc(F)cc1)C(N)=O [Compound 13] (X2-RLN[Phe(4-F)]-NH2) | 2.6 ± 0.4 µM | 21.1 ± 7 µM
Cc1nc(C(=O)N[C@@H](CCCNC(=N)N)C(=O)N[C@@H](CC(C)C)C(=O)N[C@@H](CC(N)=O)C(=O)N[C@@H](Cc2ccc(F)cc2)C(N)=O)nn1-c1cccc(C(F)(F)F)c1 [Compound 14] (X4-RLN[Phe(4-F)]-NH2) | 2.8 ± 0.42 µM | 3.65 ± 0.92 µM
Cc1cc(NC(=O)C2CCCCC2C(=O)N[C@@H](CC(C)C)C(=O)N[C@@H](CC(N)=O)C(=O)N[C@@H](Cc2ccc(F)cc2)C(N)=O)no1 (stereo partly shown) [Compound 15] | 219 ± 10 µM | 87 ± 14 µM
CC(C)C[C@H](NC(=O)[C@H](CCCNC(=N)N)NC(=O)[C@@H](N)CCCNC(=N)N)C(=O)Nc1cccc(Oc2ccccc2)c1 [Compound 24] | 56.9 ± 1.9 µM | 21.9 ± 4.9 µM
CC(C)C[C@H](NC(=O)[C@H](CCCNC(=N)N)NC(=O)[C@@H](N)CCCNC(=N)N)C(=O)Nc1cccc(OCc2ccccc2)c1 [Compound 25] | 35 ± 2.03 µM | 29.8 ± 12 µM
CC(C)C[C@H](NC(=O)[C@H](CCCNC(=N)N)NC(=O)[C@@H](N)CCCNC(=N)N)C(=O)NCc1cccc(Oc2ccccc2)c1 [Compound 26] | 4.7 ± 0.7 µM | 8.81 ± 1.08 µM
CC(C)C[C@@H](CNc1cccc(Oc2ccccc2)c1)NC(=O)[C@H](CCCNC(=N)N)NC(=O)[C@@H](N)CCCNC(=N)N [Compound 29] | 22.7 ± 2.72 µM | 8.55 ± 2.11 µM
CC(C)C[C@@H](CNc1cccc(OCc2ccccc2)c1)NC(=O)[C@H](CCCNC(=N)N)NC(=O)[C@@H](N)CCCNC(=N)N [Compound 30] | 58.2 ± 3.82 µM | 8.37 ± 4.24 µM
